Measured values from patent US20090306009A1, “Modulation of the P2Y2 Receptor Pathway” (P2-SCIENCE APS, priority 2005, published 2009).
Entries after “also recorded” stand apart in the source; their conditions may differ. Read-outs that look alike come from different tables or passages of the source.

Key:
[1] = tested on: resting leg of healthy male subjects; experiment: Leg haemodynamic responses to intrafemoral artery infusion of purinergic vasodilators alone and combined with tyramine; type: in vivo, human; conditions: for effect on increased sympathetic vasoconstrictor activity evoked by tyramine: infusion in the resting leg; for leg blood flow (LBF) during vasodilator infusion: intrafemoral artery infusion of vasodilator alone, resting leg, rest about 0.5; for leg blood flow (LBF) during vasodilator infusion / leg a-v O2 difference during vasodilator infusion / leg blood flow (LBF) during combined vasodilator and tyramine infusion / leg a-v O2 difference during combined vasodilator and tyramine infusion: mean±S.E.M.; for leg vasoconstriction caused by tyramine during vasodilator infusion: tyramine added to the infusion of the named vasodilator; for leg a-v O2 difference during vasodilator infusion: vasodilator alone; for leg blood flow (LBF) during combined vasodilator and tyramine infusion: vasodilator plus tyramine about 13.2 μmol/min; for leg a-v O2 difference during combined vasodilator and tyramine infusion: vasodilator plus tyramine; for effect of tyramine on leg vascular conductance during vasodilator infusion / effect of tyramine on LBF during vasodilator infusion: tyramine added to vasodilator infusion; for effect of tyramine on LBF during vasodilator infusion: P=0.53
Description: This study was performed in nine healthy male subjects from Denmark. The subjects were fully informed of any risks and discomforts associated with the experiments before giving their informed written consent to participate. The studies conformed to the code of Ethics of the World Medical Association (Declaration of Helsinki) and were approved by the Ethics Committee for Copenhagen and Frederiksberg communities.
Subjects reported to the laboratory at 8 a.m. or 1 p.m., following the ingestion of a light breakfast or lunch. Upon arrival, they rested in a supine position while three catheters were placed under local anaesthesia (1% lidocaine) into the femoral artery and vein of the right leg and in the femoral artery of the left leg using the Seldinger technique. The femoral artery and vein catheters were positioned 1-2 cm distal from the inguinal ligament. A thermistor (Edslab probe 94-0.3-2.5F) to measure venous blood temperature was inserted through the femoral venous catheter orientated in the anterograde direction for the determination of femoral venous blood flow. Femoral venous blood flow (an index of leg blood flow (LBF)) was determined by the constant infusion thermodilution technique (Andersen & Saltin, 1985 J Physiol. 366:233-49; González-Alonso et al. 2000 J Physiol. 524:603-15; Am J Physiol Heart Circ Physiol. 278(2):H321-30). LBF represents the average of two measurements made 1-2 min after the start of exercise and 1-2 min after the start of infusion of ATP, adenosine or tyramine. Arterial blood pressure was continuously monitored by a pressure transducer (Pressure Monitoring Kit, Baxter) at the level of inguinal region and calculated by integration of the pressure curve. Heart rate was determined from an electrocardiogram. All data were continuously recorded using a Powerlab system (ADInstruments, Sydney, Australia).
Leg blood flow (LBF) and mean arterial pressure (MAP) was measured during […] purinergically-induced hyperaemic conditions: (1) Intrafemoral artery infusion of adenosine (vasodilator control), (2) sequential intraarterial infusion of AMP, ADP, ATP or UTP (vasodilators), and (3), comparing the responses with the combined infusion with the vasoconstrictor drug tyramine, which evokes endogenous release of noradrenaline from sympathetic nerve endings.
Adenosine (Item Development AB, Stocksund, Sweden) was dissolved in isotonic saline (1.25 mg ml^−1) and infused at a rate of 16 μmol min^−1. AMP (Sigma) was dissolved in isotonic saline and infused at 71 μmol/min, ADP (Sigma) was dissolved in isotonic saline at […], ATP (Sigma) was dissolved in isotonic saline at 1 μmol/^min and UTP (Sigma) was dissolved in isotonic saline 1 μmol min^−1
95:2370-4; J Physiol. 547:971-6).
(§1) The combined infusion of adenosine and tyramine was to evoke a vasoconstrictor response in the resting leg of about 50%, without causing increases in arterial blood pressure, as previously documented in the Leg (Rosenmeier et al. 2004 J. Physiol. 558:351-365). Tyramine (Sigma T-2879) dissolved in isotonic saline (0.52 mg ml-1) was infused at a rate of about 13.2 μmol/min through all the tyramine trials.
The subjects first received separate infusions of adenosine, AMP, ADP, ATP or UTP for 4 min followed by combined infusions of vasodilator and tyramine for an additional 4 min.
Plasma noradrenaline and adrenaline concentrations were determined with high performance liquid chromatography with electrochemical detection (Hallman et al. 1978 Life Sci. 23(10):1049-52). Arterial and femoral haemoglobin concentration and O2 saturation were determined spectrophotometrically (OSM-3 Hemoximeter, Radiometer). PO2 was determined with the Astrup technique (ABL 5, Radiometer, Copenhagen, Denmark).
Leg vascular conductance was calculated as the quotient between LBF and mean arterial pressure. Leg O2 delivery was calculated by multiplying LBF by arterial O2 content. […]

[2] = tested on: leg blood flow; conditions: previously registered, Rosenmeier et al. 2004; cited from earlier work
[3] = tested on: leg blood flow; experiment: Maximal nucleotide-induced vasodilatation at rest relative to peak LBF during maximal bicycling exercise; type: in vivo, human
Excerpt: Maximal UTP-induced vasodilatation was investigated at rest accounted for […] of the peak LBF during maximal bicycling exercise in comparison to the 78% increase in LBF previously registered for ATP (Rosenmeier et al. 2004 J. Physiol. 558:351-365).

[4] = tested on: resting leg; experiment: Tyramine infusion alone in the resting leg (separate studies); type: in vivo, human; conditions: tyramine about 13.2 μmol/min, no vasodilator
Description: as §1

[5] = vasodilator alone versus combined with tyramine

Structure (SMILES) | effect on increased sympathetic vasoconstrictor activity evoked by tyramine [1] | leg blood flow (LBF) during vasodilator infusion [1] [L/min] | leg vasoconstriction caused by tyramine during vasodilator infusion [1] [%] | leg VO2, vasodilator alone versus with tyramine [1, 5] | leg a-v O2 difference during vasodilator infusion [1] | leg blood flow (LBF) during combined vasodilator and tyramine infusion [1] [L/min] | change of leg a-v O2 difference on addition of tyramine [1, 5] | leg a-v O2 difference during combined vasodilator and tyramine infusion [1] [ml l^−1] | effect of tyramine on leg vascular conductance during vasodilator infusion [1] | effect of tyramine on LBF during vasodilator infusion [1] | maximal vasodilatation as share of peak LBF during maximal bicycling exercise [2] [%] | maximal vasodilatation as share of peak LBF during maximal bicycling exercise [3] [%] | reduction of blood flow by tyramine infusion [4] [%]
Nc1ncnc2c1ncn2[C@@H]1O[C@H](COP(=O)(O)OP(=O)(O)O)[C@@H](O)[C@H]1O [ADP] | does not; also recorded: substantial vasoconstrictor response | 3.34 ± 0.4 | 30 | statistically significantly different | 6.0+1 ml l^−1 | 2.3 ± 0.3 | – | – | – | – | – | – | –
Nc1ncnc2c1ncn2[C@@H]1O[C@H](COP(=O)(O)O)[C@@H](O)[C@H]1O [AMP] | does not; also recorded: substantial vasoconstrictor response | 3.7 ± 0.4 | 53 | – | 4.5±0.5 ml l^−1 | 1.7 ± 0.2 | elevated | 15.3±3.1 | – | – | – | – | –
Nc1ncnc2c1ncn2[C@@H]1O[C@H](COP(=O)(O)OP(=O)(O)OP(=O)(O)O)[C@@H](O)[C@H]1O [ATP] | fully blunts | – | 0 | – | 7.9±1.7 ml l^−1 | – | Absolutely no change; also recorded: unchanged | 5.7±1.6 | did not alter; also recorded: no reduction | did not alter; also recorded: no reduction | 78 | – | –
O=c1ccn([C@@H]2O[C@H](COP(=O)(O)OP(=O)(O)OP(=O)(O)O)[C@@H](O)[C@H]2O)c(=O)[nH]1 [UTP] | fully blunts | – | 0 | – | 7.1±0.9 ml l^−1 | – | Absolutely no change; also recorded: unchanged | 7.1±1.5 | did not alter; also recorded: no reduction | did not alter; also recorded: no reduction | – | 50 | –
Nc1ncnc2c1ncn2[C@@H]1O[C@H](CO)[C@@H](O)[C@H]1O [adenosine] | does not; also recorded: substantial vasoconstrictor response | 3.8 ± 0.3 | 56 | – | 7.7±0.5 ml l^−1 | 1.7 ± 0.2 | elevated | 26.0±2.2 | – | – | – | – | –
NCCc1ccc(O)cc1 [tyramine] | – | – | – | – | – | – | – | – | – | – | – | – | 44±3
